Reference: patent US20180094139A1 (priority 2014, published 2018)

Key:
BlaC = BlaC (Mycobacterium tuberculosis, UniProt P9WKD3); type: biochemical
[1] = Stability of fluorogenic probes in MES buffer (spontaneous hydrolysis); type: physicochemical; settings: 0.1 M, pH 6.6, room temperature (22° C.)
[2] = system: β-lactamase-expressing bacteria; type: cell-based
[3] = system: E. cloacae with AmpC β-lactamase; type: cell-based; settings: 10^5 c.f.u., probe 10 μM, 3 h incubation
[4] = system: K. pneumoniae with Class A carbapenemase KPC; type: cell-based; settings: 10^5 c.f.u., probe 10 μM, 3 h incubation
[5] = system: penicillinase isolated from Bacillus cereus (Pen); settings: probe 10 μM, 3 h incubation with diluted Pen
Experimental: Data were collected in a 384-well plate with a total volume of 25 μL in each well. Fluorescence was measured with excitation at 490 nm and emission at 535 nm. Relative fluorescence represents the difference in fluorescence intensity with and without β-lactamase incubation. […] Error bars are ±SD.

Sequence of BlaC (P9WKD3 35-307 limits assumed): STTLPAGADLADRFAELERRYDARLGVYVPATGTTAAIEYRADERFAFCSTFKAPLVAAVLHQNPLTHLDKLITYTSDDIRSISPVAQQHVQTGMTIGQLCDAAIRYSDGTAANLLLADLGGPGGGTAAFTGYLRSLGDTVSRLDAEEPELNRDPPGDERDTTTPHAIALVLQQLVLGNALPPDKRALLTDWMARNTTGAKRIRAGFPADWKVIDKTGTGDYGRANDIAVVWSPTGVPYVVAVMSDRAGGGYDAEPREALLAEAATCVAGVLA

Row | SMILES | catalytic efficiency (kcat/Km) for BlaC over TEM-1 Bla (BlaC) | spontaneous hydrolysis rate [1] [s⁻¹] | fluorescence signal with β-lactamase-expressing bacteria (specificity) [2] | fluorescent intensity ratio of AmpC to BlaC (IAmpC/IBlaC) [3] | fluorescent intensity ratio IKPC/IBlaC [4] | activity towards penicillinase (Pen) [5]
1 | COc1ccc(-c2c3ccc(=O)cc-3oc3cc(OCc4ccc(OCC5=C(C(=O)O)N6C(=O)[C@](NC(=O)Cc7ccccc7)(OC)[C@H]6SC5)cc4)ccc23)c(C)c1 [CDG-OMe] | 8,900 fold | 1.9e-07 | much better selectivity for BlaC over other β-lactamase expressing bacteria | 1/9 | 1/4 | some activity
2 | COc1ccc(-c2c3ccc(=O)cc-3oc3cc(OCc4ccc(OCC5=C(C(=O)O)N6C(=O)[C@@H](NC(=O)Cc7ccccc7)[C@H]6SC5)cc4)ccc23)c(C)c1 [CDG-1] |  |  | fluorescent signal turn-on with all bacteria |  |  | 
3 | O=C(Cc1ccccc1)N[C@@H]1C(=O)N2C(C(=O)O)=C(COc3ccc4ccc(=O)oc4c3)C3(CC3)S[C@H]12 [CDC-Cp, (6R,7R)-3-(((2-oxo-2H-chromen-7-yl)oxy)methyl)-7-(2-phenylacetamido)-2-azaspiro[2,1′-cyclopropane]-3-cephem-2-carboxylic acid] | around 10 fold |  |  |  |  | 
4 | CO[C@@]1(NC(=O)Cc2ccccc2)C(=O)N2C(C(=O)O)=C(COc3ccc4ccc(=O)oc4c3)C3(CC3)S[C@@H]21 [CDC-OMe-Cp, (6R,7S)-7-methoxy-3-(((2-oxo-2H-chromen-7-yl)oxy)methyl)-7-(2-phenylacetamido)-2-azaspiro[2,1′-cyclopropane]-3-cephem-4-carboxylic acid] | 6.3×10^4 fold |  |  |  |  | 
